Measurements taken from PubChem BioAssay AID2060506 (Molecular Pharmacology Branch, DTP, NCI, 2025).

Tested on: 598228-144-R-J1-PDC complex spheroid viability
Test: Anticancer human tumor 598228-144-R-J1-PDC patient-derived serous endometrial adenocarcinoma cell line growth inhibition [GQUAD]
Conditions: for IC50: curve of first compound; for viability, T/C: stronger effect = lower value; active means viability on the fitted dose curve at most 10% of control; inactive means the rest
How it was run: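 Viability of tumor cells grown as complex spheroids with endothelial and stromal cells, exposed to drug combinations. Top concentration at or near clinical Cmax (else 10 microM), diluted in half-log increments.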

[1] = second compound 0.0316 µM, first compound 0.0316 µM
[2] = second compound 0.0316 µM, first compound 0.1 µM
[3] = second compound 0.0316 µM, first compound 0.316 µM
[4] = second compound 0.0316 µM, first compound 1 µM
[5] = second compound 0.0316 µM, first compound 3.16 µM
[6] = second compound 0.0316 µM, first compound 10 µM
[7] = second compound 0.1 µM, first compound 0.0316 µM
[8] = second compound 0.1 µM, first compound 0.1 µM
[9] = second compound 0.1 µM, first compound 0.316 µM
[10] = second compound 0.1 µM, first compound 1 µM
[11] = second compound 0.1 µM, first compound 3.16 µM
[12] = second compound 0.1 µM, first compound 10 µM
[13] = second compound 0.316 µM, first compound 0.0316 µM
[14] = second compound 0.316 µM, first compound 0.1 µM
[15] = second compound 0.316 µM, first compound 0.316 µM
[16] = second compound 0.316 µM, first compound 1 µM
[17] = second compound 0.316 µM, first compound 3.16 µM
[18] = second compound 0.316 µM, first compound 10 µM
[19] = second compound 1 µM, first compound 0.0316 µM
[20] = second compound 1 µM, first compound 0.1 µM
[21] = second compound 1 µM, first compound 0.316 µM
[22] = second compound 1 µM, first compound 1 µM
[23] = second compound 1 µM, first compound 3.16 µM
[24] = second compound 1 µM, first compound 10 µM
[25] = second compound 3.16 µM, first compound 0.0316 µM
[26] = second compound 3.16 µM, first compound 0.1 µM
[27] = second compound 3.16 µM, first compound 0.316 µM
[28] = second compound 3.16 µM, first compound 1 µM
[29] = second compound 3.16 µM, first compound 3.16 µM
[30] = second compound 3.16 µM, first compound 10 µM
[31] = second compound 10 µM, first compound 0.0316 µM
[32] = second compound 10 µM, first compound 0.1 µM
[33] = second compound 10 µM, first compound 0.316 µM
[34] = second compound 10 µM, first compound 1 µM
[35] = second compound 10 µM, first compound 3.16 µM
[36] = second compound 10 µM, first compound 10 µM
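Further: spheroids exposed to the agents for one week before reading.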
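Wherever viability, T/C is given: percent of vehicle DMSO control viability so 100% = untreated growth.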

C=CCn1c(=O)c2cnc(Nc3ccc(N4CCN(C)CC4)cc3)nc2n1-c1cccc(C(C)(C)O)n1 + Cc1[nH]c2ccc(F)cc2c1-c1nc2c3cccnc3c3ncccc3c2[nH]1
< 0.0316 µM: IC50 (second compound 3.16 µM)
0.999 µM: IC50 (second compound 0.0316 µM)
inactive: viability, T/C [1] 110% | viability, T/C [2] 102% | viability, T/C [3] 83.2% | viability, T/C [4] 48.3% | viability, T/C [5] 47.1% | viability, T/C [6] 52.8% | viability, T/C [7] 125% | viability, T/C [8] 84.6% | viability, T/C [9] 62.5% | viability, T/C [10] 53.4% | viability, T/C [11] 52.8% | viability, T/C [12] 55.9% | viability, T/C [13] 77.7% | viability, T/C [14] 75.4% | viability, T/C [15] 66.1% | viability, T/C [16] 48.9% | viability, T/C [17] 55.6% | viability, T/C [18] 62.4% | viability, T/C [19] 52% | viability, T/C [20] 59.8% | viability, T/C [21] 46.7% | viability, T/C [22] 48.7% | viability, T/C [23] 55% | viability, T/C [24] 74.5% | viability, T/C [25] 40.1% | viability, T/C [26] 35.1% | viability, T/C [27] 39.9% | viability, T/C [28] 44.6% | viability, T/C [29] 59% | viability, T/C [30] 62.3% | viability, T/C [31] 73.6% | viability, T/C [32] 54.6% | viability, T/C [33] 50.4% | viability, T/C [34] 42.4% | viability, T/C [35] 52.2% | viability, T/C [36] 57.7%
> 10 µM: IC50 (second compound 0.1 µM) | IC50 (second compound 0.316 µM) | IC50 (second compound 1 µM) | IC50 (second compound 10 µM)

CCCS(=O)(=O)Nc1ccc(F)c(C(=O)c2c[nH]c3ncc(-c4ccc(Cl)cc4)cc23)c1F + Cc1cnc(CNC(=O)c2c(=O)c3ccc(N4CCCN(C)CC4)nc3n3c2sc2ccccc23)cn1
< 0.0316 µM: IC50 (second compound 10 µM)
4.94 µM: IC50 (second compound 0.316 µM)
6.45 µM: IC50 (second compound 0.1 µM)
6.97 µM: IC50 (second compound 0.0316 µM)
3.62 µM: IC50 (second compound 3.16 µM)
active: viability, T/C [30] 0.38%
inactive: viability, T/C [1] 92.8% | viability, T/C [2] 96% | viability, T/C [3] 113% | viability, T/C [4] 92.5% | viability, T/C [5] 109% | viability, T/C [6] 26.9% | viability, T/C [7] 77.7% | viability, T/C [8] 81.5% | viability, T/C [9] 60.7% | viability, T/C [10] 65.6% | viability, T/C [11] 92.2% | viability, T/C [12] 34.4% | viability, T/C [13] 59.4% | viability, T/C [14] 82% | viability, T/C [15] 74% | viability, T/C [16] 62.3% | viability, T/C [17] 65.7% | viability, T/C [18] 27.3% | viability, T/C [19] 64.5% | viability, T/C [20] 70.7% | viability, T/C [21] 62.3% | viability, T/C [22] 65.6% | viability, T/C [23] 73.8% | viability, T/C [24] 27.7% | viability, T/C [25] 59.9% | viability, T/C [26] 47.5% | viability, T/C [27] 48.4% | viability, T/C [28] 61.5% | viability, T/C [29] 65.6% | viability, T/C [31] 33.5% | viability, T/C [32] 32.5% | viability, T/C [33] 18.7% | viability, T/C [34] 24.7% | viability, T/C [35] 40.9% | viability, T/C [36] 0.26%
5.23 µM: IC50 (second compound 1 µM)

CC1COCCN1c1cc(C2(S(C)(=N)=O)CC2)nc(-c2ccnc3[nH]ccc23)n1 (stereo unspecified) + Cc1cnc(CNC(=O)c2c(=O)c3ccc(N4CCCN(C)CC4)nc3n3c2sc2ccccc23)cn1
3.71 µM: IC50 (second compound 0.1 µM)
inactive: viability, T/C [1] 79.9% | viability, T/C [2] 93.9% | viability, T/C [3] 71.1% | viability, T/C [4] 62.4% | viability, T/C [5] 87.8% | viability, T/C [6] 36.9% | viability, T/C [7] 74% | viability, T/C [8] 61.2% | viability, T/C [9] 72.7% | viability, T/C [10] 68.7% | viability, T/C [11] 53.1% | viability, T/C [12] 30.2% | viability, T/C [13] 83.1% | viability, T/C [14] 63.8% | viability, T/C [15] 62.8% | viability, T/C [16] 55.9% | viability, T/C [17] 57.8% | viability, T/C [18] 38.1% | viability, T/C [19] 65.2% | viability, T/C [20] 57.2% | viability, T/C [21] 58.7% | viability, T/C [22] 60.9% | viability, T/C [23] 49.3% | viability, T/C [24] 32.4% | viability, T/C [25] 48.8% | viability, T/C [26] 49.9% | viability, T/C [27] 51.8% | viability, T/C [28] 39.9% | viability, T/C [29] 49.2% | viability, T/C [30] 26.4% | viability, T/C [31] 41.7% | viability, T/C [32] 30.1% | viability, T/C [33] 34.1% | viability, T/C [34] 15.1% | viability, T/C [35] 33.7% | viability, T/C [36] 6%
< 0.0316 µM: IC50 (second compound 3.16 µM) | IC50 (second compound 10 µM)
2.91 µM: IC50 (second compound 0.316 µM)
3.27 µM: IC50 (second compound 1 µM)
6.99 µM: IC50 (second compound 0.0316 µM)
